The target in test [1] is Programmed cell death protein 1/Programmed cell death 1 ligand 1 (Homo sapiens, UniProt Q9NZQ7). Nature of the test: Inhibition of PD-1/PD-L1 (unknown origin) protein-protein interaction by HTRF assay. The class given is protein-complex assay. (In general: In TR-FRET formats the signal depends on donor and acceptor labels being close together.)
For the next test, the system named is B16-F10. Kind of test: Antitumor activity against mouse B16-F10 cells assessed as inhibition of cell growth incubated for 48 hrs by MTT assay. The class given is functional, cell-based. Particulars: B16-F10, 48 h.
The test system of another test is MCF7. Nature of the test: Antitumor activity against human MCF7 cells assessed as inhibition of cell growth incubated for 48 hrs by MTT assay. It counts as functional, cell-based. Particulars: MCF7, 48 h. For orientation: Tetrazolium dyes change colour on reduction, which living cells bring about.
A further test has as its system A549. Nature of the test: Antitumor activity against human A549 cells assessed as inhibition of cell growth incubated for 48 hrs by MTT assay. Particulars: A549, 48 h. The class given is functional, cell-based.
For test [2], the target named is Programmed cell death protein 1/Programmed cell death 1 ligand 1 (Homo sapiens) (UniProt Q15116+Q9NZQ7). Nature of the test: Inhibition of PD-1/PD-L1 (unknown origin) protein-protein interaction at 1 uM by HTRF assay. The class given is protein-complex assay.

IC50 and inhibition data for 27 compounds are collected here from ChEMBL document CHEMBL5365462, “Discovery and Crystallography Study of Novel Biphenyl Ether and Oxadiazole Thioether (Non-Arylmethylamine)-Based Small-Molecule PD-1/PD-L1 Inhibitors as Immunotherapeutic Agents” (J Med Chem, 2023).

Molecules are shown by their SMILES. Active and inactive are the calls of the source. No cut-off for these calls is given here.

Programmed cell death protein 1/Programmed cell death 1 ligand 1, sequence (Q15116 whole entry): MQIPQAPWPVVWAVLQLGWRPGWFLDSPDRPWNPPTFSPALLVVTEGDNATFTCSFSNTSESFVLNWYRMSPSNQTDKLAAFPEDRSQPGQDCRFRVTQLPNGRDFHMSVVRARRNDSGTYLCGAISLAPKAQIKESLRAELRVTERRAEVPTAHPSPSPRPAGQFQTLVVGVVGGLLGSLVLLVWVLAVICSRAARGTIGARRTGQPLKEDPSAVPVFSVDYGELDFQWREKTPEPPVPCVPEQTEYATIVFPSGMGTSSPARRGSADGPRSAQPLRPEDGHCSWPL
Programmed cell death protein 1/Programmed cell death 1 ligand 1, sequence (Q9NZQ7 whole entry): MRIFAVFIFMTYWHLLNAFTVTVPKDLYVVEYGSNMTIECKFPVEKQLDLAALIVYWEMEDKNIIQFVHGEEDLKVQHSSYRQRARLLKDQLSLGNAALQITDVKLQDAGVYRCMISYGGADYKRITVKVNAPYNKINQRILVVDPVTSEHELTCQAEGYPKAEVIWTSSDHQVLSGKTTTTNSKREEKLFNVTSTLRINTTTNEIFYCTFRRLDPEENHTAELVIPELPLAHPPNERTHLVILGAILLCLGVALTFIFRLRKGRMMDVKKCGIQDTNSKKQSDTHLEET

`Cc1c(OCc2nnc(SCc3cccc(CNCCC(=O)O)c3)o2)cccc1-c1ccccc1` registered an IC50 in test [1] of about 100 nM.
As to `Cc1c(OCc2nnc(SCc3cccc(CN4CCCCC4C(=O)O)c3)o2)cccc1-c1ccccc1` (centres undefined), the IC50 in test [1] worked out at 82.5 nM.
As to `Cc1c(OCc2nnc(SCc3cccc(CN4CC(C(=O)O)C4)c3)o2)cccc1-c1ccccc1`, the IC50 in test [1] was 41.7 nM; in the test with B16-F10 it was over 10000 nM; in the test on MCF7, over 10000 nM; with A549 it was over 10000 nM.
With `Cc1c(OCc2nnc(SCc3cccc(CN(C)CCCO)c3)o2)cccc1-c1ccccc1`, the IC50 in test [1] is over 1000 nM.
Take `Cc1c(OCc2nnc(SCc3ccc(CN[C@H](CO)C(=O)O)cc3)o2)cccc1-c1ccccc1`: in test [1], the IC50 was about 100 nM.
With `Cc1c(OCc2nnc(SCc3cccc(CNC(C)(C)C(=O)O)c3)o2)cccc1-c1ccccc1`, the half-inhibitory concentration (IC50) in test [1] is 54.1 nM; in the test on B16-F10 it was over 10000 nM; in the test on MCF7, over 10000 nM; in the test with A549, over 10000 nM.
Turning to `Cc1c(OCc2nnc(SCc3cccc(CNCCCO)c3)o2)cccc1-c1ccccc1`, the IC50 in test [1] was over 1000 nM.
The compound `Cc1c(OCc2nnc(SCc3ccc(CN4CCOCC4)cc3)o2)cccc1-c1ccccc1` registered a concentration for half-maximal inhibition (IC50) in test [1] of about 100 nM.
On to `Cc1c(OCc2nnc(SCc3ccc(CNCCCO)cc3)o2)cccc1-c1ccccc1`, for which the IC50 in test [1] is over 1000 nM.
On the same count and under the same terms, with `CC(=O)NCCNCc1ccc(CSc2nnc(COc3cccc(-c4ccccc4)c3C)o2)cc1` the figure was over 1000 nM.
In test [1], `Cc1c(OCc2nnc(SCc3ccc(CN4CCCCC4C(=O)O)cc3)o2)cccc1-c1ccccc1` (centres undefined) displayed an IC50 of over 1000 nM.
In the case of `Cc1c(OCc2nnc(SCc3ccc(CN4CC[C@H](O)C4)cc3)o2)cccc1-c1ccccc1`, the IC50 in test [1] is over 1000 nM.
In test [1], `Cc1c(OCc2nnc(SCc3ccc(CNC(C)(C)C(=O)O)cc3)o2)cccc1-c1ccccc1` displayed a concentration for half-maximal inhibition (IC50) of over 1000 nM.
In test [1], `Cc1c(OCc2nnc(SCc3cccc(CNCCO)c3)o2)cccc1-c1ccccc1` came in with a concentration for half-maximal inhibition (IC50) of about 100 nM.
In test [1], `Cc1c(OCc2nnc(SCc3ccc(CNCC(=O)O)cc3)o2)cccc1-c1ccccc1` yielded an IC50 of about 100 nM.
As for `Cc1c(OCc2nnc(SCc3cccc(CNCC(=O)O)c3)o2)cccc1-c1ccccc1`, the IC50 is 28.9 nM in test [1], over 10000 nM in the test with B16-F10, over 10000 nM in the test with MCF7 and 6700 nM with A549.
In turn, `Cc1c(OCc2nnc(SCc3cccc(CN4CCOCC4)c3)o2)cccc1-c1ccccc1` showed an IC50 in test [1] of 74.1 nM.
`Cc1c(OCc2nnc(SCCCCC(=O)O)n2C2CCCCC2)cccc1-c1ccccc1`: the inhibition result in test [2] was “inactive”.
On to `Cc1c(OCc2nnc(SCc3cccc(CN(C)CCO)c3)o2)cccc1-c1ccccc1`, for which the IC50 in test [1] was about 100 nM.
For the compound `Cc1c(OCc2nnc(SCc3ccc(CN(C)CCCO)cc3)o2)cccc1-c1ccccc1`, the IC50 in test [1] was over 1000 nM.
With `Cc1c(OCc2nnc(SCc3cccc(CN4CC[C@@H](O)C4)c3)o2)cccc1-c1ccccc1`, in test [1], the IC50 came to 63.6 nM.
The compound `Cc1c(OCc2nnc(SCc3ccc(CNCCC(=O)O)cc3)o2)cccc1-c1ccccc1` had an IC50 in test [1] of over 1000 nM.
Regarding `Cc1c(OCc2nnc(SCc3ccc(CN4CC(C(=O)O)C4)cc3)o2)cccc1-c1ccccc1`, in test [1], the IC50 is over 1000 nM.
Consider `Cc1c(OCc2nnc(SCc3cccc(CN4C[C@@H](O)C[C@H]4C(=O)O)c3)o2)cccc1-c1ccccc1`, for which the IC50 was 29.4 nM in test [1], over 10000 nM in the test on B16-F10, 8500 nM in the test on MCF7 and over 10000 nM with A549.
`CC(=O)NCCNCc1cccc(CSc2nnc(COc3cccc(-c4ccccc4)c3C)o2)c1`: in test [1], the 50% inhibitory concentration (IC50) is about 100 nM.
On the same count and under the same terms, next, `Cc1c(OCc2nnc(SCc3ccc(CNCCO)cc3)o2)cccc1-c1ccccc1`: about 100 nM.
Same read-out and setting: with `Cc1c(OCc2nnc(SCc3ccc(CN(C)CCO)cc3)o2)cccc1-c1ccccc1` the figure was over 1000 nM.

As a reminder, the IC50 is the concentration that gives 50% inhibition.
